Experimental data as given in EP3940071A1, “5-METHYLFOLATE PRODUCING MICROORGANISM” (Chifeng Pharmaceutical Co., Ltd, priority 2020, dated 2022).

Experiment: Stability of folic acid in 0.1 M NaOH (HPLC)
Type: physicochemical
Conditions: 25 °C, protected from light, 144 hours (6 days)

Nc1nc2ncc(CNc3ccc(C(=O)N[C@@H](CCC(=O)O)C(=O)O)cc3)nc2c(=O)[nH]1 [folic acid, pteroyl-L-glutamic acid]
decomposition of folic acid: did not undergo to decomposition
